Measurements as given in patent publication US20250032476A1, “ALPHA-2A ADRENERGIC RECEPTOR MODULATORS AND USES THEREOF” (The Regents of the University of California, priority 2021, published 2025).
Like-named read-outs stand apart in the source and are kept apart here.

Molecular target: ALPHA-2A ADRENERGIC RECEPTOR (Homo sapiens (Human), UniProt P08913)
Assay: Gi recruitment (G protein)
Format: cell-based
Conditions: Gi recruitment; for functional classification (agonist / weak agonist): Table 6, result in words
[1] = Tables 7-9, read-out: G protein EC50

Chain of ALPHA-2A ADRENERGIC RECEPTOR (P08913 whole entry): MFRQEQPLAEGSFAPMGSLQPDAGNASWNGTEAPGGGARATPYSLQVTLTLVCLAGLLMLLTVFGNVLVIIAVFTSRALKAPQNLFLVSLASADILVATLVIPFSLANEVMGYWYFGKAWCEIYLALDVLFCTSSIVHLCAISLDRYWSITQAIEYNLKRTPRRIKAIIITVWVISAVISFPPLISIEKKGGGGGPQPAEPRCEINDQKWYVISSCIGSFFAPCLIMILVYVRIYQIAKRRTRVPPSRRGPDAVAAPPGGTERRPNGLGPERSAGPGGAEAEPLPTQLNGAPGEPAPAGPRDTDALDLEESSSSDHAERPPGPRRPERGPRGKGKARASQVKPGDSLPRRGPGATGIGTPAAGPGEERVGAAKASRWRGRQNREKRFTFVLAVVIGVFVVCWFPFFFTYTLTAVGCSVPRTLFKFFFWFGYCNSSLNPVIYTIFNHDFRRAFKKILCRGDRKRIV

Molecule | EC50 [1] | functional classification (agonist / weak agonist) | EC50 (Table 6, read-out: EC50)
C=C(c1ccccc1)c1c(F)ccnc1N [Compound 9689] | 7300 nM |  | 
C=C(c1ccccc1)c1cccnc1N [Compound 9280] | 2600 nM |  | 
Nc1ncccc1-c1ccc2scnc2c1 [Compound 8723, 3-(Benzo[d]thiazol-5-yl)pyridin-2-amine] | 1300 nM |  | 
Oc1ccc2c(Nc3ccncc3)cccc2c1 [PS85] |  | agonist | 87 nM
Cc1cc2c(Nc3ccncc3)cccc2cn1 [PS74] |  | agonist | 450 nM
Cc1ccc(Nc2ccccn2)cc1C [Compound 4472, N-(3,4-Dimethylphenyl)pyridin-2-amine] | 3300 nM |  | 
COc1ccc2c(Nc3ccncc3)cccc2c1 [PS73] |  |  | 50 nM
Nc1ccc(Nc2ccccn2)cc1Cl [Compound 7502, 3-Chloro-N^1-(pyridin-2-yl)benzene-1,4-diamine] | 460 nM |  | 
Nc1ncccc1-c1ccc2[nH]ncc2c1 [Compound 9241, 3-(1H-Indazol-5-yl)pyridin-2-amine] | 2100 nM |  | 
CN(c1cccc(Cl)c1)c1cc(N)ccn1 [Compound 2029, N^2-(3-Chlorophenyl)-N^2-methylpyridine-2,4-diamine] | 1400 nM |  | 
C1=C(c2cccc3ccccc23)CNCC1 [Compound 3461, 5-(Naphthalen-1-yl)-1,2,3,6-tetrahydropyridine] | 450 nM |  | 
Fc1cccc2c(Nc3ccncc3)cncc12 [PS82] |  | agonist | 230 nM
3-Methyl-N^1-(pyridin-2-yl)benzene-1,4-diamine [Compound 5822] | 1100 nM |  | 
COc1cccc2c(Nc3ccncc3)cncc12 [PS79] |  | agonist | 100 nM
C1=C(c2ccc3c(c2)CCO3)CNCC1 [Compound 9700, 5-(2,3-Dihydrobenzofuran-5-yl)-1,2,3,6-tetrahydropyridine] | 800 nM |  | 
Cc1coc2ccc(C3=CCCNC3)cc12 [Compound 9677, 5-(3-Methylbenzofuran-5-yl)-1,2,3,6-tetrahydropyridine] | 170 nM |  | 
Nc1ccnc(Oc2ccc(F)cc2)c1 [Compound 4783, 2-(4-Fluorophenoxy)pyridin-4-amine] | 580 nM |  | 
CN(c1ccc(N)c(F)c1)c1ccccn1 [Compound 6254, 3-Fluoro-N^1-methyl-N^1-(pyridin-2-yl)benzene-1,4-diamine] | 5400 nM |  | 
CN1CCc2c(Nc3ccncc3)cccc2C1=O [PS77] |  | agonist | 1200 nM
Cc1c(-c2cccnc2N)ccc2[nH]ncc12 [Compound 5193, 3-(4-Methyl-1H-indazol-5-yl)pyridin-2-amine] | 3100 nM |  | 
C1=C(c2cccc3c2CCC3)CNCC1 [Compound 3827, 5-(2,3-dihydro-1H-inden-4-yl)-1,2,3,6-tetrahydropyridine] | 390 nM |  | 
Fc1ccc2cncc(Nc3ccncc3)c2c1 [PS76] |  | agonist | 89 nM
CN1C(=O)CCc2c(Nc3ccncc3)cccc21 [PS78] |  | agonist | 43 nM
Cc1cccc(N(C)c2ccc(N)nc2)c1 [Compound 9878, N^5-methyl-N^5-(m-tolyl)pyridine-2,5-diamine] | 1100 nM |  | 
Cc1cc(-c2ccc3[nH]ncc3c2C)cnc1N [Compound 5649, 3-Methyl-5-(4-methyl-1H-indazol-5-yl)pyridin-2-amine] | 1000 nM |  | 
4-Methyl-5-(1,2,5,6-tetrahydropyridin-3-yl)-1H-pyrrolo[2,3-b]pyridine [Compound 9661] | 680 nM |  | 
Cc1cc(Nc2ccncc2)c2ccccc2n1 [Compound 9506, 2-methyl-N-(pyridin-4-yl)quinolin-4-amine] |  | weak agonist | 950 nM
CN(c1cccc(O)c1)c1cc(N)ccn1 [Compound 9448, 3-((4-Aminopyridin-2-yl)(methyl)amino)phenol] | 2900 nM |  | 
